“And” between values parts separate entries of the source, which are not always exact repeats. Identical values can stand only once.

For the test, the system named is BDF1 mice, Adenocarcinoma 755 s.c., tumor weight T/C. Nature of the test: NCI In Vivo Anticancer Drug Screen. Data for tumor model Adenocarcinoma 755 (subcutaneous) in B6D2F1 (BDF1) mice. The note with it: endpoint: mean tumor weight, higher = larger tumour. The procedure, abridged:
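Tumor-bearing mice receive test compound while controls get vehicle alone. Antitumor effect is scored from survival or tumor dimensions as a T/C quotient.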

Where [1] appears, read: dose: 25.0 mg/kg/injection, schedule: Q01DX011 (ip), vehicle: methylcellulose (MC).
Setting [2] is: dose: 75.0 mg/kg/injection, schedule: Q01DX011 (ip), vehicle: methylcellulose (MC).
[3] abbreviates: dose: 30.0 mg/kg/injection, schedule: Q01DX011 (ip), vehicle: methylcellulose (MC).
Where [4] appears, read: dose: 31.0 mg/kg/injection, schedule: Q01DX011 (ip), vehicle: methylcellulose (MC).
[5] abbreviates: dose: 225.0 mg/kg/injection, schedule: Q01DX011 (ip), vehicle: methylcellulose (MC).

On to `S=c1c2[nH]cnc2ncn1CCSC1=NC=NC2=NC=NC21` (centres undefined), for which the T/C – broadly, the ratio of treated to control – (dose: 4.0 mg/kg/injection, schedule: Q01DX011 (ip), vehicle: methylcellulose (MC)) is 61 % of control; the T/C (dose: 8.0 mg/kg/injection, schedule: Q01DX011 (ip), vehicle: methylcellulose (MC)) was 71 % of control; the T/C (dose: 16.0 mg/kg/injection, schedule: Q01DX011 (ip), vehicle: methylcellulose (MC)) was 19 % of control.

With `CCCn1cnc2c(SC(C)C)nc(N)nc21`, the T/C by setting is: (dose: 3.1 mg/kg/injection, schedule: Q01DX011 (ip), vehicle: methylcellulose (MC)) 16 % of control; (dose: 6.25 mg/kg/injection, schedule: Q01DX011 (ip), vehicle: methylcellulose (MC)) 2 % of control.

`Cn1cnc2nc[nH]c2c1=S`: the T/C by setting is: under setting [1], 64 % of control; under setting [2], 75 % of control.

On to `O=c1[nH]cnc2c1ncn2CCO`, for which the T/C by setting is: (dose: 43.75 mg/kg/injection, schedule: Q01DX011 (ip), vehicle: methylcellulose (MC)) 40 % of control; (dose: 87.5 mg/kg/injection, schedule: Q01DX011 (ip), vehicle: methylcellulose (MC)) 100 % of control; (dose: 175.0 mg/kg/injection, schedule: Q01DX011 (ip), vehicle: methylcellulose (MC)) 123 % of control; (dose: 350.0 mg/kg/injection, schedule: Q01DX011 (ip), vehicle: methylcellulose (MC)) 99 % of control.

With `Cc1cccc(CSc2nc(N)nc3nc[nH]c23)n1`, the T/C is 17 % of control (dose: 3.9 mg/kg/injection, schedule: Q01DX011 (ip), vehicle: methylcellulose (MC)); 20 % of control (dose: 7.8 mg/kg/injection, schedule: Q01DX011 (ip), vehicle: methylcellulose (MC)); 5 % of control (dose: 15.6 mg/kg/injection, schedule: Q01DX011 (ip), vehicle: methylcellulose (MC)); 1 % of control (dose: 31.25 mg/kg/injection, schedule: Q01DX011 (ip), vehicle: methylcellulose (MC)).

Turning to `Nc1ncnc2c1cnn2C1CCCCO1` (centres undefined), the T/C by setting is: (dose: 1.75 mg/kg/injection, schedule: Q01DX011 (ip), vehicle: methylcellulose (MC)) 74 % of control; (dose: 3.5 mg/kg/injection, schedule: Q01DX011 (ip), vehicle: methylcellulose (MC)) 50 % of control; (dose: 7.0 mg/kg/injection, schedule: Q01DX011 (ip), vehicle: methylcellulose (MC)) 21 % of control; (dose: 14.0 mg/kg/injection, schedule: Q01DX011 (ip), vehicle: methylcellulose (MC)) 1 % of control.

Consider `Cn1c(=O)c2[nH]c(N/N=C/c3ccc(F)cc3)nc2n(C)c1=O`, for which the T/C is 93 % of control (dose: 30.0 mg/kg/injection, schedule: Q01DX011 (ip), vehicle: carboxymethylcellulose (CMC)); 91 % of control (dose: 60.0 mg/kg/injection, schedule: Q01DX011 (ip), vehicle: carboxymethylcellulose (CMC)); 114 % of control (dose: 120.0 mg/kg/injection, schedule: Q01DX011 (ip), vehicle: carboxymethylcellulose (CMC)).

For `C/C(=N\NC(=O)c1ccncc1)c1ccc(Br)cc1`, the T/C is 44 % of control and 49 % of control under setting [3]; 48 % of control and 50 % of control (dose: 120.0 mg/kg/injection, schedule: Q01DX011 (ip), vehicle: methylcellulose (MC)); 32 % of control and 52 % of control (dose: 240.0 mg/kg/injection, schedule: Q01DX011 (ip), vehicle: methylcellulose (MC)); 54 % of control (dose: 500.0 mg/kg/injection, schedule: Q01DX011 (ip), vehicle: methylcellulose (MC)).

Take `O=[N+]([O-])c1ccc(Oc2cc(Cl)c(Cl)cc2Cl)c([N+](=O)[O-])c1`: the T/C was 91 % of control (dose: 100.0 mg/kg/injection, schedule: Q01DX011 (ip), vehicle: other); 56 % of control and 74 % of control (dose: 200.0 mg/kg/injection, schedule: Q01DX011 (ip), vehicle: carboxymethylcellulose (CMC)); 91 % of control (dose: 200.0 mg/kg/injection, schedule: Q01DX011 (ip), vehicle: other); 61 % of control (dose: 400.0 mg/kg/injection, schedule: Q01DX011 (ip), vehicle: carboxymethylcellulose (CMC)); 54 % of control (dose: 400.0 mg/kg/injection, schedule: Q01DX011 (ip), vehicle: other); 19 % of control (dose: 800.0 mg/kg/injection, schedule: Q01DX011 (ip), vehicle: carboxymethylcellulose (CMC)). Besides, the T/C (dose: 800.0 mg/kg/injection, schedule: Q01DX011 (ip), vehicle: other) is 33 % of control.

For `Nc1cc(C(=O)O)nc(N)n1`, the T/C under setting [4] is 68 % of control.

In the case of `O=C(Nc1ncnc2c1ncn2C1CC(OC(=O)c2ccc([N+](=O)[O-])cc2)C(COC(=O)c2ccc([N+](=O)[O-])cc2)O1)c1ccccc1` (centres undefined), the T/C by setting is: (dose: 16.7 mg/kg/injection, schedule: Q01DX011 (ip), vehicle: methylcellulose (MC)) 104 % of control; (dose: 50.0 mg/kg/injection, schedule: Q01DX011 (ip), vehicle: methylcellulose (MC)) 102 % of control; (dose: 150.0 mg/kg/injection, schedule: Q01DX011 (ip), vehicle: methylcellulose (MC)) 62 % of control.

Turning to `CCN(CC)CCCC(C)Nc1c2ccc(Cl)cc2nc2ccc(OC)cc12` (centres undefined), the T/C is, setting by setting: (dose: 25.0 mg/kg/injection, schedule: Q01DX011 (ip), vehicle: carboxymethylcellulose (CMC)) 68 % of control; (dose: 50.0 mg/kg/injection, schedule: Q01DX011 (ip), vehicle: carboxymethylcellulose (CMC)) 62 % of control; (dose: 100.0 mg/kg/injection, schedule: Q01DX011 (ip), vehicle: carboxymethylcellulose (CMC)) 52 % of control.

Turning to `CC1CCc2ccccc2N1C(=O)CCCl` (centres undefined), the T/C is 48 % of control under setting [1], 82 % of control under setting [2] and 50 % of control under setting [5].

Consider `C/C(=N\NC(=O)c1ccncc1)c1ccccc1Cl`, for which the T/C is 56 % of control under setting [3] and 61 % of control (dose: 60.0 mg/kg/injection, schedule: Q01DX011 (ip), vehicle: methylcellulose (MC)).

`CCOC(=O)C(N)Cc1ccc(N(CCCl)CCCl)cc1` (centres undefined): the T/C was 92 % of control (dose: 0.5 mg/kg/injection, schedule: Q01DX011 (ip), vehicle: carboxymethylcellulose (CMC)); 82 % of control (dose: 0.5 mg/kg/injection, schedule: Q01DX011 (ip), vehicle: saline); 77 % of control (dose: 1.1 mg/kg/injection, schedule: Q01DX011 (ip), vehicle: carboxymethylcellulose (CMC)); 40 % of control (dose: 1.1 mg/kg/injection, schedule: Q01DX011 (ip), vehicle: saline); 91 % of control (dose: 2.2 mg/kg/injection, schedule: Q01DX011 (ip), vehicle: carboxymethylcellulose (CMC)); 9 % of control (dose: 2.2 mg/kg/injection, schedule: Q01DX011 (ip), vehicle: saline). Moreover, the T/C by setting is: (dose: 4.5 mg/kg/injection, schedule: Q01DX011 (ip), vehicle: carboxymethylcellulose (CMC)) 78 % of control; (dose: 4.5 mg/kg/injection, schedule: Q01DX011 (ip), vehicle: saline) 1 % of control; (dose: 9.0 mg/kg/injection, schedule: Q01DX011 (ip), vehicle: carboxymethylcellulose (CMC)) 69 % of control.

On to `Cn1c(=O)c2[nH]c(N/N=C/c3ccccc3)nc2n(C)c1=O`, for which the T/C is, setting by setting: (dose: 20.0 mg/kg/injection, schedule: Q01DX011 (ip), vehicle: methylcellulose (MC)) 56 % of control; under setting [1], 45 % of control and 53 % of control; (dose: 80.0 mg/kg/injection, schedule: Q01DX011 (ip), vehicle: methylcellulose (MC)) 73 % of control; under setting [5], 41 % of control and 46 % of control.

Take `C[C@]12CC[C@H](O)CC1=CC[C@@H]1[C@@H]2[C@@H](O)C[C@@]2(C)[C@H]1CC[C@]2(C)O`: the T/C was 96 % of control (dose: 100.0 mg/kg/injection, schedule: Q01DX011 (sc), vehicle: steriod suspending solution) and 93 % of control (dose: 300.0 mg/kg/injection, schedule: Q01DX011 (sc), vehicle: steriod suspending solution).

For the compound `Cc1cnc(SCc2ccc(Cl)cc2)[nH]c1=O`, the T/C by setting is: (dose: 15.0 mg/kg/injection, schedule: Q01DX011 (ip), vehicle: methylcellulose (MC)) 74 % of control; under setting [4], 84 % of control; (dose: 62.0 mg/kg/injection, schedule: Q01DX011 (ip), vehicle: methylcellulose (MC)) 57 % of control; (dose: 125.0 mg/kg/injection, schedule: Q01DX011 (ip), vehicle: methylcellulose (MC)) 49 % of control; (dose: 250.0 mg/kg/injection, schedule: Q01DX011 (ip), vehicle: methylcellulose (MC)) 81 % of control.

With `CC1CN1P(=O)(OCCC#N)N1CC1C` (centres undefined), the T/C (dose: 28.0 mg/kg/injection, schedule: Q01DX011 (ip), vehicle: saline) was 90 % of control; the T/C (dose: 56.0 mg/kg/injection, schedule: Q01DX011 (ip), vehicle: saline) is 104 % of control; the T/C (dose: 113.0 mg/kg/injection, schedule: Q01DX011 (ip), vehicle: saline) is 77 % of control; the T/C (dose: 225.0 mg/kg/injection, schedule: Q01DX011 (ip), vehicle: saline) is 10 % of control.

These data come from PubChem BioAssay AID180 (DTP/NCI, 2004).
